The assay has as its system B6C3F1 mice, intracerebral ependymoblastoma, median survival T/C. Kind of assay: NCI In Vivo Anticancer Drug Screen. Data for tumor model Ependymoblastoma (intracerebral) in B6C3F1 mice. The note with it: endpoint: median survival time, higher = longer survival. How it is done:
The antitumor activity of compounds was measured in mice bearing transplantable tumors. Survival or tumor size were measured and the results are expressed as the measurement made in the treated group (T) divided by the measurement made in the vehicle treated control group (C). The tumor model used in this assay is Ependymoblastoma (intracerebral) in B6C3F1 mice

Setting [1] is: dose: 8.0 mg/kg/injection, schedule: Q01DX005 (ip), vehicle: Klucel (hydroxypropylcellulose) (HPC).
The mark [2] stands for this setting: dose: 16.0 mg/kg/injection, schedule: Q01DX005 (ip), vehicle: Klucel (hydroxypropylcellulose) (HPC).
[3] abbreviates: dose: 32.0 mg/kg/injection, schedule: Q01DX005 (ip), vehicle: Klucel (hydroxypropylcellulose) (HPC).
Where [4] appears, read: dose: 64.0 mg/kg/injection, schedule: Q01DX005 (ip), vehicle: Klucel (hydroxypropylcellulose) (HPC).
Where [5] appears, read: dose: 16.0 mg/kg/injection, schedule: Q01DX005 (ip), vehicle: saline with Tween-80.
[6] abbreviates: dose: 2.0 mg/kg/injection, schedule: Q01DX005 (ip), vehicle: Klucel (hydroxypropylcellulose) (HPC).
[7] abbreviates: dose: 4.0 mg/kg/injection, schedule: Q01DX005 (ip), vehicle: Klucel (hydroxypropylcellulose) (HPC).

Where “and” joins values, the source holds several entries; their conditions need not be identical. Identical values can stand only once. Inconclusive results and toxic doses are left out.

As to `COc1ccc2c(c1)CCC(c1ccccc1)=C2c1ccc(OCCN2CCCC2)cc1`, the T/C under setting [1] is 106 % of control; the T/C (dose: 12.0 mg/kg/injection, schedule: Q01DX005 (ip), vehicle: saline with Tween-80) was 108 % of control; the T/C under setting [2] was 106 % of control; the T/C (dose: 24.0 mg/kg/injection, schedule: Q01DX005 (ip), vehicle: saline with Tween-80) is 110 % of control; the T/C under setting [3] was 110 % of control; the T/C (dose: 48.0 mg/kg/injection, schedule: Q01DX005 (ip), vehicle: saline with Tween-80) is 104 % of control. The T/C by setting is: under setting [4], 101 % of control; (dose: 96.0 mg/kg/injection, schedule: Q01DX005 (ip), vehicle: saline with Tween-80) 107 % of control.
Take `O=NN(CCF)C(=O)NC1CCCCC1`: the T/C is, setting by setting: (dose: 5.1 mg/kg/injection, schedule: Q01DX001 (ip), vehicle: other) 106 % of control; (dose: 5.18 mg/kg/injection, schedule: Q01DX005 (ip), vehicle: Klucel (hydroxypropylcellulose) (HPC)) 184 % of control; (dose: 8.64 mg/kg/injection, schedule: Q01DX005 (ip), vehicle: Klucel (hydroxypropylcellulose) (HPC)) 357 % of control; (dose: 10.2 mg/kg/injection, schedule: Q01DX001 (ip), vehicle: other) 123 % of control; (dose: 13.0 mg/kg/injection, schedule: Q01DX001 (ip), vehicle: Klucel (hydroxypropylcellulose) (HPC)) 153 % of control; (dose: 14.4 mg/kg/injection, schedule: Q01DX005 (ip), vehicle: Klucel (hydroxypropylcellulose) (HPC)) 357 % of control. Also, the T/C (dose: 20.4 mg/kg/injection, schedule: Q01DX001 (ip), vehicle: other) is 160 % of control; the T/C (dose: 21.6 mg/kg/injection, schedule: Q01DX001 (ip), vehicle: Klucel (hydroxypropylcellulose) (HPC)) was 216 % of control; the T/C (dose: 24.0 mg/kg/injection, schedule: Q01DX005 (ip), vehicle: Klucel (hydroxypropylcellulose) (HPC)) was 357 % of control; the T/C (dose: 36.0 mg/kg/injection, schedule: Q01DX001 (ip), vehicle: Klucel (hydroxypropylcellulose) (HPC)) was 363 % of control; the T/C (dose: 40.7 mg/kg/injection, schedule: Q01DX001 (ip), vehicle: other) is 220 % of control; the T/C (dose: 60.0 mg/kg/injection, schedule: Q01DX001 (ip), vehicle: Klucel (hydroxypropylcellulose) (HPC)) was 363 % of control. Further, the T/C reads like this: (dose: 81.4 mg/kg/injection, schedule: Q01DX001 (ip), vehicle: other) 331 % of control; (dose: 100.0 mg/kg/injection, schedule: Q01DX001 (ip), vehicle: Klucel (hydroxypropylcellulose) (HPC)) 333 % of control.
In the case of `COc1cc2c(c3c1c(=O)c1ccccc1n3C)C=CC(C)(C)O2`, the T/C under setting [4] was 114 % of control; the T/C (dose: 128.0 mg/kg/injection, schedule: Q01DX005 (ip), vehicle: suspension in saline) was 108 % of control; the T/C (dose: 256.0 mg/kg/injection, schedule: Q01DX005 (ip), vehicle: suspension in saline) was 120 % of control.
For the compound `CN(N=O)C(=O)Nc1c[nH]c(=O)[nH]c1=O`, the T/C under setting [5] is 114 % of control.
Consider `CNc1nc(N(C)C)nc(N(C)C)n1`, for which the T/C reads like this: (dose: 16.0 mg/kg/injection, schedule: Q01DX005 (ip), vehicle: saline) 98 % of control and 111 % of control; (dose: 32.0 mg/kg/injection, schedule: Q01DX005 (ip), vehicle: saline) 101 % of control; (dose: 64.0 mg/kg/injection, schedule: Q01DX005 (ip), vehicle: saline) 104 % of control and 115 % of control; (dose: 128.0 mg/kg/injection, schedule: Q01DX005 (ip), vehicle: saline) 96 % of control and 111 % of control.
`COc1ccc2c(c1OC(C)=O)-c1cc(OC(C)=O)cc3c1C(C2)N(C(=O)CBr)CC3` (stereo unspecified): the T/C is 96 % of control (dose: 25.0 mg/kg/injection, schedule: Q01DX005 (ip), vehicle: saline) and 91 % of control (dose: 50.0 mg/kg/injection, schedule: Q01DX005 (ip), vehicle: saline).
Regarding `O=C1C(NCC(O)CO)=C(N2CC2)C(=O)C(NCC(O)CO)=C1N1CC1` (stereo unspecified), the T/C runs as follows: (dose: 0.5 mg/kg/injection, schedule: Q01DX005 (ip), vehicle: saline) 117 % of control; (dose: 1.0 mg/kg/injection, schedule: Q01DX005 (ip), vehicle: saline) 116 % of control.
For `CC(=O)OCC1OC(n2ccc(N)nc2=O)C(OC(C)=O)C1OC(C)=O` (stereo unspecified), the T/C runs as follows: (dose: 50.0 mg/kg/injection, schedule: Q01DX005 (ip), vehicle: Klucel (hydroxypropylcellulose) (HPC)) 98 % of control; (dose: 100.0 mg/kg/injection, schedule: Q01DX005 (ip), vehicle: Klucel (hydroxypropylcellulose) (HPC)) 102 % of control; (dose: 200.0 mg/kg/injection, schedule: Q01DX005 (ip), vehicle: Klucel (hydroxypropylcellulose) (HPC)) 117 % of control.
For the compound `N=c1ccn2c(n1)OC1C(O)C(CO)OC12` (stereo unspecified), the T/C was 118 % of control (dose: 37.5 mg/kg/injection, schedule: Q01DX005 (ip), vehicle: saline); 104 % of control (dose: 75.0 mg/kg/injection, schedule: Q01DX005 (ip), vehicle: saline); 92 % of control and 94 % of control and 109 % of control (dose: 100.0 mg/kg/injection, schedule: Q01DX001 (ip), vehicle: saline); 115 % of control (dose: 150.0 mg/kg/injection, schedule: Q01DX005 (ip), vehicle: saline); 100 % of control (2×) and 101 % of control (dose: 200.0 mg/kg/injection, schedule: Q01DX001 (ip), vehicle: saline); 95 % of control and 98 % of control and 112 % of control (dose: 400.0 mg/kg/injection, schedule: Q01DX001 (ip), vehicle: saline). In addition, the T/C is 106 % of control and 112 % of control and 123 % of control (dose: 800.0 mg/kg/injection, schedule: Q01DX001 (ip), vehicle: saline); 99 % of control and 105 % of control and 115 % of control (dose: 1600.0 mg/kg/injection, schedule: Q01DX001 (ip), vehicle: saline).
In the case of `CC(=O)Nc1ccn(C2OC(COC(C)=O)C(OC(C)=O)C2OC(C)=O)c(=O)n1` (stereo unspecified), the T/C runs as follows: (dose: 150.0 mg/kg/injection, schedule: Q01DX005 (ip), vehicle: saline with Tween-80) 105 % of control; (dose: 300.0 mg/kg/injection, schedule: Q01DX005 (ip), vehicle: saline with Tween-80) 112 % of control; (dose: 600.0 mg/kg/injection, schedule: Q01DX005 (ip), vehicle: saline with Tween-80) 107 % of control; (dose: 1200.0 mg/kg/injection, schedule: Q01DX005 (ip), vehicle: saline with Tween-80) 120 % of control.
In the case of `NC(=S)N/N=C/c1ccc(O)cn1`, the T/C reads like this: (dose: 12.0 mg/kg/injection, schedule: Q01DX005 (ip), vehicle: saline) 102 % of control; (dose: 24.0 mg/kg/injection, schedule: Q01DX005 (ip), vehicle: saline) 107 % of control; (dose: 48.0 mg/kg/injection, schedule: Q01DX005 (ip), vehicle: saline) 110 % of control; (dose: 96.0 mg/kg/injection, schedule: Q01DX005 (ip), vehicle: saline) 115 % of control.
For `CC[C@H]1CN2CCc3cc(OC)c(OC)cc3[C@@H]2C[C@@H]1C[C@H]1NCCc2cc(OC)c(OC)cc21`, the T/C by setting is: under setting [6], 100 % of control and 104 % of control; under setting [7], 99 % of control and 105 % of control; under setting [1], 105 % of control and 117 % of control.
Regarding `Cc1[nH]c(=O)[nH]c(=O)c1N(CCF)CCCl`, the T/C by setting is: under setting [6], 90 % of control; (dose: 2.0 mg/kg/injection, schedule: Q01DX005 (ip), vehicle: saline with Tween-80) 98 % of control and 100 % of control; under setting [7], 93 % of control and 108 % of control; (dose: 4.0 mg/kg/injection, schedule: Q01DX005 (ip), vehicle: saline with Tween-80) 102 % of control and 105 % of control; under setting [1], 97 % of control and 114 % of control; (dose: 8.0 mg/kg/injection, schedule: Q01DX005 (ip), vehicle: saline with Tween-80) 96 % of control and 100 % of control. For the same compound, the T/C runs as follows: under setting [2], 107 % of control and 89 % of control; under setting [5], 106 % of control and 107 % of control; under setting [3], 94 % of control and 123 % of control; (dose: 32.0 mg/kg/injection, schedule: Q01DX005 (ip), vehicle: saline with Tween-80) 100 % of control.

The values are drawn from PubChem BioAssay AID226 (DTP/NCI, 2004).
